# Laboratory results reported in US20240092784A1, “CONDENSED HETEROCYCLIC COMPOUND” (NISSAN CHEMICAL CORPORATION, priority 2020, published 2024).
# Legend:
# human SPR [1] = target: T1, human SPR (Homo sapiens (Human), UniProt P35270); experiment: Evaluation Example 1: Measurement of human SPR inhibitory activity (sepiapterin absorbance at 420 nm); assay type: biochemical; conditions: 240 minutes at room temperature
# Protocol: Human SPR was prepared as described below. The full-length human SPR (1-261) cDNA was purchased from Eurofins Genomics as an artificially synthesized plasmid containing a DNA sequence optimized for the E. coli expression system so that the sequence of the expressed protein after transcription and translation matches the sequence described in UniprotKB (P35270).
# Linearized insert and vector were prepared by PCR using primers designed for amplification of human SPR cDNA and primers designed to contain the thrombin recognition sequence of pET28a (Novagen) and a polyhistidine tag. Cloning was performed using In-Fusion (registered trademark) HD Cloning Kit (TaKaRa) to thereby construct a human SPR expression plasmid. The resultant human SPR expression plasmid was transformed into BL21 (DE3) competent cells (INVITROGEN).
# The cells were inoculated into LB medium (1% triptone, 0.5% yeast extract, 1% sodium chloride) containing […] of kanamycin, and then precultured at 37° C. overnight. The precultured cells were inoculated into TB medium (1.2% triptone, 2.4% yeast extract, 9.4% dipotassium hydrogen phosphate, 2.2% potassium dihydrogen phosphate, 0.8% glycerin) containing […] of kanamycin, and the cultured at 37° C., to thereby induce SPR expression with 0.5 mM IPTG for four hours. After the induction, the cells were collected by centrifugation at 6,000 G for 30 minutes and washed with PBS, and the washing was discarded. The washed cells were suspended in buffer solution A (20 mM MES, pH 6.5, 100 mM sodium chloride, 1 mM DTT, 5 mM imidazole). Subsequently, the cell suspension was subjected to ultrasonic treatment to thereby homogenize the cells. The cell homogenate was clarified by centrifugation at 30,000 G for 60 minutes and then filtered with a […]. The filtrate was allowed to pass through HisTrapFF 5 mL column (GE Healthcare). The resin was washed with buffer A, and then gradient elution was performed with buffer B (20 mM MES, pH 6.5, 100 mM sodium chloride, 1 mM DTT, 500 mM imidazole). Thrombin was added to a fraction containing the SPR protein, and the mixture was dialyzed in buffer A overnight, to thereby cleave the tag. After removal of the thrombin by with Benzamidine Sepharose 4 FF (GE Healthcare), the resultant product was allowed to pass through the HisTrapFF 5 mL column, to thereby remove the tag, followed by concentration with Amicon Ultra 10,000 NMWL (Merck Millipore). The concentrate was purified by gel filtration using HiLoad 16/60 Superdex 75 pg (GE Healthcare) equilibrated with buffer C (20 mM MES, pH 6.5, 100 mM sodium chloride, 1 mM DTT). The fraction containing SPR protein was concentrated and then cryopreserved at −80° C.
# Human SPR inhibitory activity was measured by using a 384-well low adsorption clear plate (Greiner) with buffer D containing 100 mM Tris-HCl (pH 7.5) (Thermo Fisher Scientific) and 0.01% bovine serum albumin (Sigma). A compound was diluted with DMSO to a concentration of 1 mM, and a 1 μL aliquot of the preparation was diluted with 250 μL of buffer D. The thus-diluted compound was dispensed into the 384-well plate at […]. Thereafter, human SPR was diluted with buffer D to 200 ng/mL and then dispensed into the 384-well plate at 20 μL/well. Subsequently, 40 μL of ultrapure water containing 120 μM Sepiapterin (WuXi AppTec) and 120 μM NADPH (Nacalai) was added to each well, and mixed with a vortex mixer, to thereby initiate the reaction. The reaction mixture was incubated at room temperature for 240 minutes, and the reaction was terminated by addition of 10 μL of ultrapure water containing 2% formic acid (Nacalai). In order to determine the amount of sepiapterin after termination of the reaction, the absorbance at 420 nm was measured by applying the 384-well plate to EnSpire multimode plate reader (Perkin Elmer). The percent inhibition (%) of human SPR by the test compound was calculated by the following formula. […]
# human SPR [2] = target: T1, human SPR; experiment: Evaluation Example 2: Measurement of human SPR inhibitory activity (seven concentrations, sepiapterin absorbance at 420 nm); assay type: biochemical; conditions: Evaluation Example 2, seven concentrations 0.14 nM to 100 nM, 240 minutes at room temperature, read-out: IC50
# How it was run: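 His-tagged full-length human SPR (1-261) was expressed in E. coli and the tag removed. Enzyme at 150 ng/mL in 100 mM Tris-HCl pH 7.5/0.01% BSA was mixed with compound (0.14–100 nM, seven points), 120 μM sepiapterin and 160 μM NADPH, both as added-solution concentrations. After 240 min at room temperature, remaining sepiapterin was read at 420 nm to give percent inhibition.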
# T1 sequence (P35270 whole entry): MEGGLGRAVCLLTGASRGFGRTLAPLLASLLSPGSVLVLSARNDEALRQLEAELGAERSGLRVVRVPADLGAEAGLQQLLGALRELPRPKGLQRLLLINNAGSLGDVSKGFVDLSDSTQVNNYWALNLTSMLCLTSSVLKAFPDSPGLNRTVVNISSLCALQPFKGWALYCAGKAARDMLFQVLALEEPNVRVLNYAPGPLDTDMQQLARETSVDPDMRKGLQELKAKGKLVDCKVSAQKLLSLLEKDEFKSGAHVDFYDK
SMILES,IC50 (human SPR [1]),IC50 (human SPR [2])
"CC(C)Cn1c(=O)c(C(=O)NC2CC2)c(O)n2nc(Nc3cnccn3)cc12 [Synthesis Example 23, N-Cyclopropyl-7-hydroxy-4-isobutyl-5-oxo-2-(pyrazin-2-ylamino)-4,5-dihydropyrazolo[1,5-a]pyrimidine-6-carboxamide]",< 1000 nM,1.91 nM
"CC(C)(C)Cn1c(=O)c(C(=O)NC2CC2)c(O)n2nc(NC(N)=O)cc12 [Synthesis Example 32, N-Cyclopropyl-7-hydroxy-4-neopentyl-5-oxo-2-ureido-4,5-dihydropyrazolo[1,5-a]pyrimidine-6-carboxamide]",< 1000 nM,3.08 nM
"CC(C)(C)Cn1c(=O)c(C(=O)NC2CC2)c(O)n2nc(C(N)=O)cc12 [Synthesis Example 33, N6-Cyclopropyl-7-hydroxy-4-neopentyl-5-oxo-4,5-dihydropyrazolo[1,5-a]pyrimidine-2,6-dicarboxamide]",< 1000 nM,0.65 nM
